Assay [1] relates to sI-A^d. Conditions: pH 5.3, 37° C., FITC peptide from sI-A^d.
Assay [2] concerns peptide specific T cell hybridomas. Description: T cell hybridoma assay (IL-2 production, CTLL/MTT). The assay is classed as cell-based, mouse.
Assay [3] concerns CD4 T cells. Description: IL-2 ELISPOT of draining lymph node cells after immunization with MalE:insert protein. To be noted: mice immunized with MalE protein. The assay is classed as in vivo, mouse.
Assay [4] deals with lymph node cells. In words: IL-2 ELISPOT after immunization with peptide (cross reactivity of WT and variant). The assay is classed as in vivo, mouse. Conditions: mice immunized with WT or variant peptide.
For assay [5], the system named is sI-A^d. In words: Peptide competition with FITC-HA[126-138] for binding to soluble I-A^d. To be noted: 1 μM FITC-HA[126-138], 20 nM soluble I-A^d. The arrangement: species or system mouse. As for the experimental part:
B. The percentage of inhibition of binding of 1 μM N-terminal FITC-HA[126-138] to sI-A^d by the unlabeled competitor peptide was plotted against the concentration of unlabeled inhibitory peptide. Data is represented as a Hill Plot (Hill, J Physiol 40, iv-vii, 1910), and is the average of 2 independent experiments
Soluble I-A^d (20 nM) and 1 μM FITC-HA[126-138] were used for competition assays, which is in the titratable range of peptide and class II molecules. Unlabeled competitor peptides at a final concentrations ranging between 0-500 μM were mixed, and after 16-20 h of incubation at 37° C., the sI-A^d-FITC-HA[126-138] complex was separated from free peptide and quantified as described above. Inhibition by competitor peptides was calculated using the Hill equation ((Hill, J Physiol 40, iv-vii, 1910), with the IC50 value the concentration of unlabeled competitor peptide required to achieve 50% inhibition of the labeled peptide binding to class II molecules.

Assay [6] relates to CD4 T cells. Description: IL-2 ELISPOT after immunization with OVA protein. The assay is classed as in vivo, mouse. Conditions: mice immunized with OVA protein. As for the experimental part: Groups of 2 BALB/c mice were immunized in the footpad with (A) 200 μg/mL OVA protein, (B) 200 μg/mL of the indicated MalE protein, or (D and E) 5 nmol of the indicated peptide emulsified in 50 μL PBS:CFA. The number of IL-2 producing cells at day 10 was determined by 16 h in vitro stimulation of CD4 purified cells with syngeneic spleen cells and (A) 200 μg/mL protein or 12.5 μM peptide, (B) 200 μg/mL protein or 5 μM peptide, or (D and E) the indicated amount of peptide and quantified using IL-2 ELISPOT assays with background subtracted. (A and D) Data represents the mean counts of two separate cell dilutions ([…] and 1.25×10^5) of triplicate wells normalized as indicated. […] Data are representative of at least 2 independent experiments.
To provide another example of a cryptic epitope that can gain immunodominance by simply changing its kinetic stability with I-A^d, one of the peptide registers contained within the prototypic I-A^d-restricted peptide OVA [323-339] (Jenkins et al., Annu Rev Immunol 19, 23-45, 2001; Sette et al., J Immunol 142, 35-40, 1988) was studied. Several studies (McFarland et al., Biochemistry 38, 16663-16670, 1999; Robertson et al., J Immunol 164, 4706-4712, 2000) have shown that this long peptide contains several alternative registers, including the most amino terminal segment that was co-crystallized with I-A^d (Scott et al., Immunity 1, 73-83, 1998). […]

Sequence of sI-A^d (P04228 24-111 limits assumed): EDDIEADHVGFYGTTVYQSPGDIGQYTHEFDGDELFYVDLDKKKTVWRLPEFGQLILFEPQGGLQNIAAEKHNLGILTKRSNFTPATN
Sequence of sI-A^d (P01921 28-122 limits assumed, further chain): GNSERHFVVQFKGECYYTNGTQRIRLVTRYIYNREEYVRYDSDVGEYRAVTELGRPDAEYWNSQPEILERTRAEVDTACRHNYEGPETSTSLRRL

Turning to “A332I, I334V: OVA [327-339] variant with substitutions at P4 and P6 (AVHAAHIEVNEAG; UniProt P01012 327-339, looked up, variant A332I I334V)”, the “t1/2 (half-life, kinetic stability) of peptide with I-A^d” value (“t1/2 (half-life, kinetic stability)” for short) in assay [1] is “greater than 80 h”. Further, the “stimulation of specific T cell hybridoma by soluble peptide (in words)” value in assay [2] (peptide presented by I-A^d expressing cells) was “recognized by the 3DO11.10 T cell hybridoma”. In addition, the “immunogenicity of peptide within MalE (in words)” value (“immunogenicity” below) in assay [3] is given as “immunodominant peptide”. The “cross reactivity between WT and variant peptide after peptide immunization (in words)” value in assay [4] is on record as “cross-reacted back onto the WT OVA peptide”.
Regarding “AMKRHGLDNYRGYSL [HEL [11-25], hen-egg lysozyme [11-25], prototypic cryptic peptide]”, the “t1/2 (half-life, kinetic stability)” value in assay [1] is given as 6 h. In assay [2] (MalE:insert protein, BALB/c spleen as APCs), the “reactivity of specific T cell hybridoma to peptide inserted into MalE (in words)” value is “gained reactivity”. The “competition with HA [126-138] for binding to I-A^d (in words)” value in assay [5] is “competed well”. Besides, the “immunogenicity” value in assay [3] is listed as “failure in immunogenicity”.
As for “HEL R14Q, G22S: HEL [11-25] variant with changes at P1 and P9 (AMKQHGLDNYRSYSL; UniProt P00698 29-43, looked up, variant R14Q G22S)”, the “t1/2 (half-life, kinetic stability)” value in assay [1] is given as 11 h. In assay [3], the “immunogenicity” value is listed as “remained non-immunogenic”.
Regarding “HEL [20-35]: cryptic epitope of hen-egg lysozyme (YRGYSLGNWVCAAKFE; UniProt P00698 38-53, looked up, fragment)”, the “t1/2 (half-life, kinetic stability)” value in assay [1] is 4 h. The “competition with HA [126-138] for binding to I-A^d (in words)” value in assay [5] is “competed poorly”.
In the case of “OVA [273-288]: immunodominant I-Ad restricted epitope from chicken ovalbumin (VMEERKIKVYLPRMKM; UniProt P01012 273-288, looked up, fragment)”, the “t1/2 (half-life, kinetic stability)” value in assay [1] is 160 h.
Regarding “OVA [327-339]: carboxyterminal register of OVA [323-339] recognized by the 3DO11.10 T cell (AVHAAHAEINEAG; UniProt P01012 327-339, looked up, fragment)”, the “t1/2 (half-life, kinetic stability)” value in assay [1] is 0.3 h. Further, the “percent of T cells raised against OVA that recognize the peptide” value in assay [6] is listed as “Less than 1%”.
Consider “R14Q, N19A, G22S: HEL [11-25] variant with changes at P1, P6, and P9 (AMKQHGLDAYRSYSL; UniProt P00698 29-43, looked up, variant R14Q N19A G22S)”, for which the “t1/2 (half-life, kinetic stability)” value in assay [1] amounted to 35 h. For the same substance, in assay [3], the “immunogenicity” value is given as “significant gain in immunogenicity”. The “cross reactivity between WT and variant peptide after peptide immunization (in words)” value in assay [4] is “a significant portion of the T cells elicited were non-reactive with the WT HEL peptide”.
